In patent publication US20260272965A1, “SELEN[…] OF GLY[…] ANTI-INFLAMMATORY AND ANTIVIRAL PHARMACEUTICALS” (priority 2023, published 2026):
Entries after “also recorded” stand apart in the source; their conditions may differ.

How the values were obtained:
[1] = system: HSV-2 GFP+ (bHSV2-BAC38-S1); assay: HSV-2 GFP+ infection of MRC5 cells, live-cell fluorescence imaging; format: cell-based; details: for inhibition of fluorescent HSV-2 GFP+ infected cells: 24 hours post infection, 125 μM (FIG. 5A)
Method: FIG. 5A. Fluorescent images of MRC5 cells infected with HSV-2 GFP+(bHSV2-BAC38-S1). Images taken at 0 and 24 hours post infection using an Incucyte S3 Live-Cell Analysis System. Acyclovir at a matched concentration (125 μM) was used as a positive control. FIG. 5B. Live cell imaging analysis of triplicate wells infected with HSV-2 GFP+. Wells were treated with either Vehicle (0.1% DMSO), Acyclovir 125 μM, or JR002 125 μM. Images were collected at 2 hour intervals for 48 hours post infection. Relative fluorescent intensity (RFI) calculated as the percent increase in fluorescence intensity relative to time 0 post infection. Bars represent the standard error of the mean.
JR002 is the selenoglycoside homolog of TE3048, the thioglycoside for which data for inhibition of HSV-1 was shown above. In FIG. 5A., the lower right quadrant represents high level cell damage, fluorescent HSV-2 GFP+ infected cells 24 hours post infection (24HPI), vehicle only.

[2] = system: SARS-CoV-2 (USA_WA1/2020); details: highest non-toxic dose; Vero E6, 72 hr
Excerpt: In this assay, viral infection and replication leads to a loss of host cell viability, which is indirectly measured by an endpoint assessment of host cell viability after 72 hr. The CPE reduction assay indirectly monitors the ability of compounds to inhibit viral replication and infection through various molecular mechanisms, including direct inhibition of viral entry or enzymatic processes as well as acting on host pathways that modulate viral replication. Compounds with antiviral activity protect the host cells from the CPE of the virus, increasing viability.
Protocol: Vero E6 cells were premixed with SARS-CoV-2 for 5-10 min, dispensed into assay ready plates (pre-dispensed with compounds and controls). Cells and virus were incubated with compounds for 72 hr, then viability was assayed by Vero E6 host cell ATP content. 60 nL/well of compounds in DMSO was spotted into 384-well assay plates (Greiner, black clear bottom, tissue culture treated plates, #781091) by acoustic dispensing. In addition, 60 nL of the positive control Calpain inhibitor IV (stock concentration 2 mg/mL). 5 μL/well of media was dispensed into assay plates (MEM, 1% Pen/Strep/GlutaMax, 1% HEPES, 2% HI FBS). […] Luminescence signal was read on Perkin Elmer Envision or BMG CLARIOstar plate reader.

HSV-1 = format: cell-based, Herpes simplex 1; details: Vero cells, 4 hour treatment, low multiplicity HSV-1
SARS-CoV-2 spike protein = details: previously demonstrated; blocks N-glycan processing at the oligomannose stage; cited from earlier work

**Q.** With `Nc1nc2c(ncn2COCCO)c(=O)[nH]1` [Acyclovir, reference compound] as the molecule, how does the “inhibition of fluorescent HSV-2 GFP+ infected cells” value [1] read?
**A.** almost complete inhibition

**Q.** With `CC(=O)NC1C(OC(C)=O)[C@H](OC(C)=O)C(COC(C)=O)O[C@H]1[Se]C/C=C(\C)CCC=C(C)C` (stereo partly drawn) [JR002, Geranyl 2-acetamido-2-deoxy-3,4,6-tri-O-acetyl-1-seleno-3-D-glucopyranoside] as the molecule, how does the “inhibition of HSV-2 replication / infectivity” value ([1]; 125 μM, imaging for 48 hours post infection) read?
**A.** potent inhibition of infectivity; also recorded: significantly inhibits

**Q.** What about the “inhibition of fluorescent HSV-2 GFP+ infected cells” value [1] of the same molecule?
**A.** almost complete inhibition

**Q.** For `CC(=O)N[C@@H]1[C@@H](OC(C)=O)[C@H](OC(C)=O)[C@@H](COC(C)=O)O[C@H]1SC/C=C(\C)CCC=C(C)C` [TE3048, N,O-tetra-acetyl-GlcNAc-ß-S-geranyl], which “inhibition of SARS-CoV-2” value [2] is on record?
**A.** 60-70%

**Q.** For `CC(=O)N[C@@H]1[C@@H](O)[C@H](O)[C@@H](CO)O[C@H]1SC/C=C(\C)CCC=C(C)C` [TE3054, GlcNAc-ß-S-geranyl], which “inhibition of HSV-1 infectivity / plaque formation” value (HSV-1) is on record?
**A.** inhibitory

**Q.** Which “inhibition of N-glycan maturation and infectivity” value (SARS-CoV-2 spike protein) does the source give for `O=C1N[C@@H]2[C@@H](O)[C@@H](O)[C@H](O)[C@@H](CO)N2C1=O` [kifunensine] here?
**A.** Inhibition of N-glycan maturation and infectivity
